Measured values taken from patent US11382328B2, “Rapid drug discovery methods for pathogen inactivation” (priority 2019, dated 2022).

System: E. coli strain W3110
Assay: Synergy assays: Biolog chemical sensitivity panels with Group IB metal, coefficient of drug interaction (CDI) from relative growth
Format: cell-based
Details: for CDI (coefficient of drug interaction) / CDI (coefficient of drug interaction), silver + biocide: E. coli; for CDI (coefficient of drug interaction), gold + biocide: Gold (μM); for CDI (coefficient of drug interaction), copper mixed with biocide: Copper (mM) section
[1] = Copper (mM), 1st of 3 copper concentrations (head line not shown), biocide concentration 2 of 4
[2] = Copper (mM), 1st of 3 copper concentrations (head line not shown), biocide concentration 3 of 4
[3] = Copper (mM), 1st of 3 copper concentrations (head line not shown), biocide concentration 4 of 4
[4] = Copper (mM), 2nd of 3 copper concentrations (head line not shown), biocide concentration 1 of 4
[5] = Copper (mM), 2nd of 3 copper concentrations (head line not shown), biocide concentration 2 of 4
[6] = Copper (mM), 2nd of 3 copper concentrations (head line not shown), biocide concentration 3 of 4
[7] = Copper (mM), 2nd of 3 copper concentrations (head line not shown), biocide concentration 4 of 4
[8] = Copper (mM), 3rd of 3 copper concentrations (head line not shown), biocide concentration 1 of 4
[9] = Copper (mM), 3rd of 3 copper concentrations (head line not shown), biocide concentration 3 of 4
[10] = Copper (mM), 3rd of 3 copper concentrations (head line not shown), biocide concentration 4 of 4
[11] = first of 3 gold concentrations, biocide concentration 1 of 4
[12] = first of 3 gold concentrations, biocide concentration 2 of 4
[13] = first of 3 gold concentrations, biocide concentration 3 of 4
[14] = first of 3 gold concentrations, biocide concentration 4 of 4
[15] = second of 3 gold concentrations, biocide concentration 1 of 4
[16] = second of 3 gold concentrations, biocide concentration 2 of 4
[17] = second of 3 gold concentrations, biocide concentration 3 of 4
[18] = second of 3 gold concentrations, biocide concentration 4 of 4
[19] = third of 3 gold concentrations, biocide concentration 1 of 4
[20] = third of 3 gold concentrations, biocide concentration 2 of 4
[21] = third of 3 gold concentrations, biocide concentration 3 of 4
[22] = third of 3 gold concentrations, biocide concentration 4 of 4
[23] = Silver 0.5 μM, biocide concentration 1 of 4
[24] = Silver 0.5 μM, biocide concentration 2 of 4
[25] = Silver 0.5 μM, biocide concentration 3 of 4
[26] = Silver 0.5 μM, biocide concentration 4 of 4
[27] = Silver 1.0 μM, biocide concentration 1 of 4
[28] = Silver 1.0 μM, biocide concentration 2 of 4
[29] = Silver 1.0 μM, biocide concentration 3 of 4
[30] = Silver 1.0 μM, biocide concentration 4 of 4
[31] = Silver 5.0 μM, biocide concentration 1 of 4
[32] = Silver 5.0 μM, biocide concentration 2 of 4
[33] = Silver 5.0 μM, biocide concentration 3 of 4
[34] = Silver 5.0 μM, biocide concentration 4 of 4

SMILES: CSCCC(N)C(=O)NO (racemic) [D,L-methionine hydroxamate]
- CDI (coefficient of drug interaction) [1]: 1.19
- CDI (coefficient of drug interaction) [2]: 1.02
- CDI (coefficient of drug interaction) [3]: 0.91
- CDI (coefficient of drug interaction) [4]: 0.84
- CDI (coefficient of drug interaction) [5]: 0.95
- CDI (coefficient of drug interaction) [6]: 2.26
- CDI (coefficient of drug interaction) [7]: 3.51
- CDI (coefficient of drug interaction) [8]: 0.98
- CDI (coefficient of drug interaction) [9]: 1.51
- CDI (coefficient of drug interaction) [10]: 1.54
- CDI (coefficient of drug interaction), gold + biocide [11]: 1.08
- CDI (coefficient of drug interaction), gold + biocide [12]: 1.10
- CDI (coefficient of drug interaction), gold + biocide [13]: 1.06
- CDI (coefficient of drug interaction), gold + biocide [14]: Tox
- CDI (coefficient of drug interaction), gold + biocide [15]: 1.03
- CDI (coefficient of drug interaction), gold + biocide [16]: 1.04
- CDI (coefficient of drug interaction), gold + biocide [17]: 1.08
- CDI (coefficient of drug interaction), gold + biocide [18]: Tox
- CDI (coefficient of drug interaction), gold + biocide [19]: 0.92
- CDI (coefficient of drug interaction), gold + biocide [20]: 0.96
- CDI (coefficient of drug interaction), gold + biocide [21]: 0.93
- CDI (coefficient of drug interaction), gold + biocide [22]: Tox
- CDI [23]: 0.88
- CDI [24]: 1.04
- CDI [25]: Tox
- CDI [26]: Tox
- CDI [27]: 1.04
- CDI [28]: 0.99
- CDI [29]: Tox
- CDI [30]: Tox
- CDI [31]: 0.71
- CDI [32]: 0.42
- CDI [33]: Tox
- CDI [34]: Tox

SMILES: NC(CO)C(=O)NO (racemic) [D,L-serine hydroxamate]
- CDI (coefficient of drug interaction) (Copper (mM), 1st of 3 copper concentrations (head line not shown), biocide concentration 1 of 4): 0.98
- CDI (coefficient of drug interaction) [1]: 0.94
- CDI (coefficient of drug interaction) [2]: 1.13
- CDI (coefficient of drug interaction) [3]: Tox
- CDI (coefficient of drug interaction) [4]: 0.77
- CDI (coefficient of drug interaction) [5]: 0.78
- CDI (coefficient of drug interaction) [6]: 1.03
- CDI (coefficient of drug interaction) [7]: 3.47
- CDI (coefficient of drug interaction) [8]: 0.62
- CDI (coefficient of drug interaction) (Copper (mM), 3rd of 3 copper concentrations (head line not shown), biocide concentration 2 of 4): 0.66
- CDI (coefficient of drug interaction) [9]: 1.18
- CDI (coefficient of drug interaction) [10]: Tox
- CDI (coefficient of drug interaction), gold + biocide [11]: 1.04
- CDI (coefficient of drug interaction), gold + biocide [12]: 0.95
- CDI (coefficient of drug interaction), gold + biocide [13]: 1.45
- CDI (coefficient of drug interaction), gold + biocide [14]: 0.71
- CDI (coefficient of drug interaction), gold + biocide [15]: 1.02
- CDI (coefficient of drug interaction), gold + biocide [16]: 1.00
- CDI (coefficient of drug interaction), gold + biocide [17]: 1.22
- CDI (coefficient of drug interaction), gold + biocide [18]: Tox
- CDI (coefficient of drug interaction), gold + biocide [19]: 0.96
- CDI (coefficient of drug interaction), gold + biocide [20]: 0.94
- CDI (coefficient of drug interaction), gold + biocide [21]: 1.00
- CDI (coefficient of drug interaction), gold + biocide [22]: Tox
- CDI [23]: 0.90
- CDI [24]: 0.66
- CDI [25]: 0.31
- CDI [26]: Tox
- CDI [27]: 0.89
- CDI [28]: 0.77
- CDI [29]: 0.62
- CDI [30]: Tox
- CDI [31]: 0.82
- CDI [32]: 0.61
- CDI [33]: 0.53
- CDI [34]: Tox

SMILES: c1cnc2c(c1)ccc1cccnc12 [1,10-phenanthroline]
- CDI (Copper 0.1 mM, biocide concentration 3 of 4): Tox
- CDI (Copper 0.1 mM, biocide concentration 4 of 4): Tox
- CDI (Copper 0.5 mM, biocide concentration 3 of 4): Tox
- CDI (Copper 0.5 mM, biocide concentration 4 of 4): Tox
- CDI (Copper 1.0 mM, biocide concentration 3 of 4): Tox
- CDI (Copper 1.0 mM, biocide concentration 4 of 4): Tox
- CDI (coefficient of drug interaction) (Gold 5 μM, biocide concentration 4 of 4): Tox
- CDI (coefficient of drug interaction) (Gold 25 μM, biocide concentration 4 of 4): Tox
- CDI (coefficient of drug interaction) (Gold 50 μM, biocide concentration 4 of 4): Tox
- CDI (coefficient of drug interaction), silver + biocide (Silver 0.5 μM, 3rd of four biocide concentrations): Tox
- CDI (coefficient of drug interaction), silver + biocide (Silver 0.5 μM, 4th of four biocide concentrations): Tox
- CDI (coefficient of drug interaction), silver + biocide (Silver 1.0 μM, 3rd of four biocide concentrations): Tox
- CDI (coefficient of drug interaction), silver + biocide (Silver 1.0 μM, 4th of four biocide concentrations): Tox
- CDI (coefficient of drug interaction), silver + biocide (Silver 5.0 μM, 3rd of four biocide concentrations): Tox
- CDI (coefficient of drug interaction), silver + biocide (Silver 5.0 μM, 4th of four biocide concentrations): Tox

SMILES: O=[N+]([O-])c1ccc(Cl)c([N+](=O)[O-])c1 [1-chloro-2,4-dinitrobenzene]
- CDI (coefficient of drug interaction), copper mixed with biocide (1st of 3 copper concentrations (value not shown), 4th of four biocide concentrations): Tox
- CDI (coefficient of drug interaction), copper mixed with biocide (2nd of 3 copper concentrations (value not shown), 4th of four biocide concentrations): Tox
- CDI (coefficient of drug interaction), copper mixed with biocide (3rd of 3 copper concentrations (value not shown), 4th of four biocide concentrations): Tox
